A short description of series [1]: Stability test in S9 extract. Type of series: in vitro ADME, mouse. The note with it: 2 μM, murine S9, Phase I NADPH cofactors, 0-240 minutes. As to the method:
(§1) SA (2 μM) was incubated with murine S9 (Lot KWB) and Phase I NADPH Regenerating System cofactors for 0-240 minutes. SA was quantified using a Qtrap 3200 mass spectrometer. n=3. (FIG. 7B) SA is stable in mouse plasma. 1 μl SA 2 mM DMSO stock was incubated with 1 ml ACD mouse plasma or saline making 2 μM SW125991 working solution. Vortext well and incubate in 37° C. water bath. At time point 0, 10, 30, 60, 120, 240, 1440 min, SA was quantified using a Qtrap 3200 mass spectrometer. n=3.
SA (2 mM in H2O stock, final concentration in mixture is 2 μM) was incubated with Murine S9 (Lot KWB) fraction and Phase I (NADPH Regenerating System) cofactors for 0-240 minutes. Reactions were quenched with 1 mL (1:1) of methanol containing 0.2% formic acid, and 100 ng/ml IS (IS final conc.=10 ng/ml). Samples were vortexed for 15 seconds, incubated at RT for 10 minutes and spun for 5 minutes at 2400 rpm. Supernatant (1 mL) was then transferred to an eppendorf tube and spun in a table top, chilled centrifuge for 5 minutes at 13.2K rpm. Supernatant (800 μl) was transferred to an HPLC vial (w/out insert). Analyzed by Qtrap 3200 mass spectrometer.

Series [2] has as its system Mouse bone marrow Lin-Sca-1+Kit+CD34-Flk2-cells. Put plainly: Proliferation of mouse HSCs. Type of series: cell-based. The note with it: serum-free Stemspan, 10 ng/ml SCF, 20 ng/ml TPO, cell numbers after 6 days. On the procedure: (§2) Mouse BM Lin-Sca-1+Kit+CD34-Flk2-cells were cultured in serum-free Stemspan medium with 10 ng/ml SCF, 20 ng/ml TPO, and indicated concentrations of SA. Cell numbers were counted after 6 days. FIG. 2B The effects of SA on the ex vivo expansion of mouse CD45.1 Percent repopulation of C57BL/6 bone marrow HSCs at 0, 10 nM, 100 nM, and 1 μM for 8 days, measured at 3 weeks, 7 weeks, and 16 weeks post-transplantation. The repopulation of donor mouse CD45.1 HSCs was determined by transplantation into lethally irradiated (1000 rad) CD45.2 C57BL/6 mice. Ten thousand CD45.2 total bone marrow cells were co-transplanted as competitors. n=5. […] The repopulation of human hematopoietic stem cells was determined by transplantation into sublethally irradiated (250 rad) NOD/SCID IL2R gamma^−/− (NSG) mice. n=7.
Mouse bone marrow Lin-Sca-1+Kit+CD34-Flk2-cells were cultured in serum-free Stemspan medium with 10 ng/ml SCF, 20 ng/ml TPO, and indicated concentrations of SA. Cell numbers were counted after 6 days.

Series [3] has as its system Bone marrow CD45.1 Lin-Sca-1+Kit+Flk2-CD34- cells. Put plainly: Ex vivo expansion of mouse bone marrow HSCs, repopulation after transplantation. Type of series: cell-based. The conditions noted are these: cultured 8 days, determined by bone marrow transplantation. On the procedure:
as §2
Bone marrow CD45.1 Lin^−Sca-1^+Kit^+Flk2^−CD34^− cells were isolated from 8-12 week old CD45.1 C57BL/6 mice and were plated into wells of a U-bottom 96-well plate (3799; Corning). StemSpan serum-free medium (StemCell Technologies) supplemented with 10 μg/mL heparin (Sigma), 10 ng/mL mouse SCF (R&D Systems), 20 ng/mL mouse TPO (R&D Systems), and 10 ng/mL human FGF-1 (Invitrogen), and indicated concentration of suberoylarginine was used. Cells were cultured at 37° C. in 5% CO2 and the normal level of O2 for 8 days. […]

Series [4] deals with Balb/c mice. Put plainly: Toxicity in mice, daily injections for 28 days. Type of series: in vivo, mouse. The conditions noted are these: for toxicity: 0.5 and 1.5 mg daily for four weeks (33- and 100-times the effective amount). On the procedure: In this experiment, 8-week-old Balb/c mice were given daily injections of SA at doses of 0, 0.5, and 1.5 mg per mouse for 28 days. The body weight and activities of mice were monitored daily.

For series [5], the system named is human cord blood CD133+ cells. Put plainly: Ex vivo expansion of human cord blood HSCs, repopulation in NSG mice. Type of series: cell-based. The conditions noted are these: cord blood CD133+ cells cultured 11 days, 1 μM, 8 weeks post-transplantation. On the procedure:
as §2
Cryopreserved human cord blood CD133^+ cells were purchased from AllCells. All of cells were from pooled donors. Purities of CD133^+ cells as analyzed by flow cytometry were higher than 90%. After thawing, the cell viability tested by trypan blue exclusion was higher than 72%. […] Eight weeks after transplantation, bone marrow nucleated cells from transplanted animals were analyzed by flow cytometry for the presence of human cells. Total human hematopoietic cells were determined as CD45/71^+, and human myeloid cells as myeloid CD45/71^+CD15/66b^+.

The subject of series [6] is Balb/c mice. Put plainly: Mouse model of bone marrow failure after chemo- and radio-treatment. It is filed as in vivo. As to the method: (§3) Balb/c mice were first treated with 100 mg/kg acetylphenylhydrazine and, after 24 hours, were irradiated with 2 Gy. Two days post radiation treatment, the mice were treated with 62.5 mg/kg cyclophosphamide (CY). This treatment is known to induce sublethal damage to HSCs and RBCs. Two days after the CY treatment, the mice were given daily intraperitoneal injections of SA for 4 to 14 days; a range of SA concentrations was evaluated. Blood counts were measured at days 0, 4, and 8. Additionally, bone marrow Lin^−Sca-1^+Kit^+CD34^−Flk2^− (LSKFC) cells that are enriched for HSCs and hematopoietic lineages were quantified at day 14.
as §3, with “The inventors tested the effect of SA on HSCs and RBCs in a mouse bone marrow failure model after chemo- and radio-therapy. In this model, Balb/c mice” for “Balb/c mice”, “for HSCs (Christensen and Weissman, 2001) and hematopoietic” for “for HSCs and hematopoietic”

The nature of the next series: Stability test in plasma. The conditions noted are these: 2 μM, mouse plasma, 37° C., 0-1440 min. Type of series: in vitro ADME. On the procedure: as §1
1 μl of SA (2 mM DMSO stock) was incubated with 1 ml ACD mouse plasma or saline control to make 2 μM SW125991 working solution. Vortext well and incubate in 37° C. water bath. At time point 0, 10, 30, 60, 120, 240, 1440 min, 100 μl sample was crashed by 200 μl MeOH with IS benzylbenzamide at 15 ng/ml. Centrifuge twice at 13200 rpm for 5 min, and supernatant was injected into LCMS for analysis.

The mark [7] stands for this setting: 0.5 and 1.5 mg per mouse daily for 28 days.

The structures appear in SMILES notation. “Also recorded” adds a separate entry of the source.

For `N=C(N)NCCC[C@H](NC(=O)CCCCCCC(=O)O)C(=O)O` [SA, suberoyl arginine], the “metabolic stability in S9 liver fractions” value in series [1] was “metabolically stable”. In addition, in series [2], the “proliferation of mouse HSCs” value is recorded as “promoted the proliferation; also recorded: promotes proliferation”. The “ex vivo expansion of mouse HSCs” value in series [3] is “supports the ex vivo expansion”. Also, in the series with Balb/c mice [4], the toxicity entry was “did not observe any detectable SA toxicity”. Further, the toxicity result with Balb/c mice [4] (listed as subreoylarginine) is “no detectable toxicity”. For the same molecule, in the series with Balb/c mice [4] (setting [7]), the body weight result is on record as “did not significantly alter”; the “changes in behavior, activity, hematology, serum chemistry, or urinalysis parameters” value was “did not observe any changes”; the “histological damage to tissues/organs” value is on record as “no damage was observed”. Also, the body weight entry in the series on Balb/c mice [4] (0.5 and 1.5 mg per mouse daily for 28 days, listed as suberoylarginine) is listed as “No significant change”. Moreover, the “ex vivo expansion of human HSCs” value in series [5] is recorded as “supports the ex vivo expansion”. In addition, the “increase of phenotypic bone marrow HSCs” value with Balb/c mice [6] (15 μg of SA per mouse (~0.7 mg/kg) per day for 14 days) was about 40%. In addition, in the series with Balb/c mice [6] (day 8), the “increase of hematocrit relative to animals not treated” value is 25-30%, the “increase of hemoglobin relative to animals not treated” value is reported as 25-30% and the “increase of level of RBCs relative to animals not treated” value is reported as 25-30%. In the series with Balb/c mice [6] (iv or intraperitoneal (ip) administration), the “stimulation of hematopoietic recovery by route” value was “works efficiently”. Besides, the “effect on RBC recovery compared with EPO” value in the series on Balb/c mice [6] (same mouse model, SA 15 μg, EPO 120 U/kg) is “comparable to that of EPO”. Also, the stability in plasma entry in “Stability test in plasma” was “metabolically stable”.

The record behind these values is patent publication US11013704B2, “Compounds supports hematopoietic stem cells and red blood cells” (The Board of Regents of the University of Texas System, priority 2014, dated 2021).
